Target: human PAD4 (hPAD4) (Homo sapiens (Human), UniProt Q9UM07)
Assay: RFMS Human PAD4 Functional Assay
Assay type: biochemical
Conditions: rapid-fire mass spectrum (RFMS) assay; 5 nM hPAD4 enzyme, 250 μM BAEE, 30 min preincubation at 37° C.

Sequence of human PAD4 (hPAD4) (Q9UM07 whole entry): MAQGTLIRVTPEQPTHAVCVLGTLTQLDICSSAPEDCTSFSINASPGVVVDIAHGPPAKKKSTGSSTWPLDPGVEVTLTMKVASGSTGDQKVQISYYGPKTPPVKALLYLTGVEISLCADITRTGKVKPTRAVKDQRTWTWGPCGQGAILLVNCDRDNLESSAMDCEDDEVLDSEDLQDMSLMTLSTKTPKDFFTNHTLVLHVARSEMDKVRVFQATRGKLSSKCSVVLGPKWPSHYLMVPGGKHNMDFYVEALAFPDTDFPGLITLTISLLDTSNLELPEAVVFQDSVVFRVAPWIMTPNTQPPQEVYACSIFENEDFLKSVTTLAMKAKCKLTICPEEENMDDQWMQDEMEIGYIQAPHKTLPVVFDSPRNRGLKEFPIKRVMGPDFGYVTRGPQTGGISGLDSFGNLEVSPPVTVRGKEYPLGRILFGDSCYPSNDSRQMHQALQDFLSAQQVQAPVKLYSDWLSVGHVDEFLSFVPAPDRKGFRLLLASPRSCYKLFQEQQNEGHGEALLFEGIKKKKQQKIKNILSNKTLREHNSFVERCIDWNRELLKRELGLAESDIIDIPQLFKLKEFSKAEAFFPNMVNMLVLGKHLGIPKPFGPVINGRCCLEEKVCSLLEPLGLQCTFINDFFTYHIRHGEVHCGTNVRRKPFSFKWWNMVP

Row | IC50 [nM] | Structure (SMILES)
1 | 88 | COc1cc(C(=O)N2C[C@H]3CC[C@@H]2[C@@H]3N)cc2nc3n(c12)Cc1cccc(c1)[C@H](O)[C@H](O)CCCCn1c-3cc2cccnc21 (relative stereo) [Example 47, ((1R,4R,7R)-7-amino-2-azabicyclo[2.2.1]heptan-2-yl)((5S,6R)-5,6-dihydroxy-27-methoxy-1^1H,2^1H-1,2(2,1)-dipyrrolo[2,3-b]pyridina-4(1,3)-benzenacyclodecaphane-25-yl)methanone]
2 | 92 | COc1cc(C(=O)N2C[C@H]3CC[C@@H]2[C@@H]3N)cc2nc3n(c12)Cc1cccc(c1)[C@H](O)[C@H](O)CCCCn1c-3cc2cccnc21 (relative stereo) [Example 48, ((1R,4R,7R)-7-amino-2-azabicyclo[2.2.1]heptan-2-yl)((5S,6R)-5,6-dihydroxy-27-methoxy-1^1H,2^1H-1,2(2,1)-dipyrrolo[2,3-b]pyridina-4(1,3)-benzenacyclodecaphane-25-yl)methanone]
3 | 19 | COc1cc(C(=O)N2C[C@H]3CC[C@@H]2[C@@H]3N)cc2nc3n(c12)CC1CC(=O)N(C1)c1ccccc1CCCCn1c-3cc2cccnc21 (single isomer, unassigned) [Example 37]
4 | 78 | COc1cc(C(=O)N2C[C@H]3CC[C@@H]2[C@@H]3N)cc2nc3n(c12)CC1CC(=O)N(C1)c1ccccc1CCCCn1c-3cc2cccnc21 (single isomer, unassigned) [Example 38]
5 | 30.6 | COc1cc(C(=O)N2C[C@H]3CC[C@@H]2[C@@H]3N)cc2nc3n(c12)Cc1cccc(c1)[C@H](O)[C@H](O)CCCCn1c-3cc2cccnc21 (single isomer, unassigned) [Example 45]
6 | 44.8 | COc1cc(C(=O)N2C[C@H]3CC[C@@H]2[C@@H]3N)cc2nc3n(c12)Cc1cccc(c1)[C@H](O)[C@H](O)CCCCn1c-3cc2cccnc21 (single isomer, unassigned) [Example 46]
7 | 292 | COc1cc(C(=O)N2C[C@H](N)C[C@@H](F)C2)cc2nc3n(c12)Cc1cccc(c1)[C@H](O)[C@H](O)CCCCn1c-3cc2cccnc21 (single isomer, unassigned) [Example 49]
8 | 837 | COc1cc(C(=O)N2C[C@H](N)C[C@@H](F)C2)cc2nc3n(c12)Cc1cccc(c1)[C@H](O)[C@H](O)CCCCn1c-3cc2cccnc21 (single isomer, unassigned) [Example 50]
9 | 44.9 | COc1cc(C(=O)N2CC3CCC2[C@@H]3N)cc2nc3n(c12)Cc1cccc(c1)/C=C\CCCCn1c-3cc2cccnc21 (stereo in doubt) [Example 41, ((1R,4R,7R)-7-Amino-2-azabicyclo[2.2.1]heptan-2-yl)((Z)-27-methoxy-11H,21H-1,2(2,1)-dipyrrolo[2,3-b]pyridina-4(1,3)-benzenacyclodecaphan-5-en-25-yl)methanone]
10 | 255 | COc1cc(C(=O)N2CC3CCC2[C@@H]3N)cc2nc3n(c12)Cc1cnn(c1)CCCCCn1c-3cc2ccccc21 (stereo partly drawn) [Example 1, ((7R)-7-Amino-2-azabicyclo[2.2.1]heptan-2-yl)((Z)-2^7-methoxy-1^1H,2^1H,4^1H-2(2,1)-benzo[d]imidazola-1(2,1)-indola-4(4,1)-pyrazolacyclononaphane-2^5-yl)methanone]
11 | 1370 | COc1cc(C(=O)N2CC3CCC2[C@@H]3N)cc2nc3n(c12)Cc1cnn(c1)CCCCCCn1c-3cc2cccnc21 (stereo partly drawn) [Example 2, ((7R)-7-Amino-2-azabicyclo[2.2.1]heptan-2-yl)((Z)-2^7-methoxy-1^1H,2^1H,4^1H-1,2(2,1)-dipyrrolo[2,3-b]pyridina-4(4,1)-pyrazolacyclodecaphane-2^5-yl)methanone]
12 | 19 | COc1cc(C(=O)N2C[C@H](N)C[C@@H](F)C2)cc2nc3n(c12)Cc1cnn(c1)-c1ccccc1OCCCn1c-3cc2ccccc21 [Example 3, ((3R,5R)-3-Amino-5-fluoropiperidin-1-yl)((Z)-2^7-methoxy-1^1H,2^1H,4^1H-6-oxa-2(2,1)-benzo[d]imidazola-1(2,1)-indola-4(4,1)-pyrazola-5(1,2)-benzenacyclononaphane-2^5-yl)methanone]
13 | 24 | COc1cc(C(=O)N2CC3CCC2[C@@H]3N)cc2nc3n(c12)Cc1cnn(c1)CCCCCCn1c-3cc2ccccc21 (stereo partly drawn) [Example 4, ((7R)-7-amino-2-azabicyclo[2.2.1]heptan-2-yl)((Z)-2^7-methoxy-1^1H,2^1H,4^1H-2(2,1)-benzo[d]imidazola-1(2,1)-indola-4(4,1)-pyrazolacyclodecaphane-2^5-yl)methanone]
14 | 37 | COc1cc(C(=O)N2C[C@H](N)C[C@@H](F)C2)cc2nc3n(c12)Cc1cnn(c1)CCCCCCCn1c-3cc2ccccc21 [Example 5, ((3R,5R)-3-amino-5-fluoropiperidin-1-yl)((Z)-2^7-methoxy-1^1H,2^1H,4^1H-2(2,1)-benzo[d]imidazola-1(2,1)-indola-4(4,1)-pyrazolacycloundecaphane-2^5-yl)methanone]
15 | 31 | COc1cc(C(=O)N2CC3CCC2[C@@H]3N)cc2nc3n(c12)Cc1cnn(c1)CCCCCCCn1c-3cc2ccccc21 (stereo partly drawn) [Example 6, ((7R)-7-amino-2-azabicyclo[2.2.1]heptan-2-yl)((Z)-2^7-methoxy-1^1H,2^1H,4^1H-2(2,1)-benzo[d]imidazola-1(2,1)-indola-4(4,1)-pyrazolacycloundecaphane-2^5-yl)methanone]
16 | 277 | COc1cc(C(=O)N2C[C@H](N)C[C@@H](F)C2)cc2nc3n(c12)Cc1cnn(c1)CCCCCCn1c-3cc2cccnc21 [Example 8, ((3R,5R)-3-amino-5-fluoropiperidin-1-yl)((Z)-2^7-methoxy-1^1H,2^1H,4^1H-1,2(2,1)-dipyrrolo[2,3-b]pyridina-4(4,1)-pyrazolacyclodecaphane-2^5-yl)methanone]
17 | 612 | COc1cc(C(=O)N2C[C@H](N)C[C@@H](F)C2)cc2nc3n(c12)Cc1cnn(c1)CCCCCCCn1c-3cc2cccnc21 [Example 9, ((3R,5R)-3-amino-5-fluoropiperidin-1-yl)((Z)-2^7-methoxy-1^1H,2^1H,4^1H-1,2(2,1)-dipyrrolo[2,3-b]pyridina-4(4,1)-pyrazolacycloundecaphane-2^5-yl)methanone]
18 | 137 | COc1cc(C(=O)N2CC3CCC2[C@@H]3N)cc2nc3n(c12)Cc1cnn(c1)CCCCCCCn1c-3cc2cccnc21 (stereo partly drawn) [Example 10, ((7R)-7-amino-2-azabicyclo[2.2.1]heptan-2-yl)((Z)-2^7-methoxy-1^1H,2^1H,4^1H-1,2(2,1)-dipyrrolo[2,3-b]pyridina-4(4,1)-pyrazolacycloundecaphane-2^5-yl)methanone]
19 | 18800 | COc1cc(C(=O)N2CCC[C@@H](N)C2)cc2nc3n(c12)Cc1cnn(c1)CCCCCCn1c-3cc2cccnc21 [Example 11, ((R)-3-aminopiperidin-1-yl)((Z)-2^7-methoxy-1^1H,2^1H,4^1H-1,2(2,1)-dipyrrolo[2,3-b]pyridina-4(4,1)-pyrazolacyclodecaphane-2^5-yl)methanone]
20 | 47 | COc1cc(C(=O)N2CC3CCC2[C@@H]3N)cc2nc3n(c12)Cc1cnn(c1)CCCCCCn1c-3cc2ccccc21 (stereo partly drawn) [Example 12, ((7R)-7-amino-2-azabicyclo[2.2.1]heptan-2-yl)((E)-2^7-methoxy-1^1H,2^1H,4^1H-2(2,1)-benzo[d]imidazola-1(2,1)-indola-4(3,1)-pyrazolacyclodecaphane-2^5-yl)methanone]
21 | 66 | COc1cc(C(=O)N2C[C@H](N)C[C@@H](F)C2)cc2nc3n(c12)Cc1cnn(c1)CCCCCCn1c-3cc2ccccc21 [Example 13, ((3R,5R)-3-amino-5-fluoropiperidin-1-yl)((E)-2^7-methoxy-1^1H,2^1H,4^1H-2(2,1)-benzo[d]imidazola-1(2,1)-indola-4(3,1)-pyrazolacyclodecaphane-2^5-yl) methanone]
22 | 11 | COc1cc(C(=O)N2CC3CCC2[C@@H]3N)cc2nc3n(c12)Cc1cnn(c1)-c1ccccc1OCCCn1c-3cc2ccccc21 (stereo partly drawn) [Example 14, ((7R)-7-amino-2-azabicyclo[2.2.1]heptan-2-yl)((Z)-2^7-methoxy-1^1H,2^1H,4^1H-6-oxa-2(2,1)-benzo[d]imidazola-1(2,1)-indola-4(4,1)-pyrazola-5(1,2)-benzenacyclononaphane-2^5-yl) methanone]
23 | 40 | COc1cc(C(=O)N2C[C@H](N)C[C@@H](F)C2)cc2nc3n(c12)Cc1cnn(c1)-c1ccccc1OCCCn1c-3cc2cccnc21 [Example 15, ((3R,5R)-3-amino-5-fluoropiperidin-1-yl)((Z)-2^7-methoxy-1^1H,2^1H,4^1H-6-oxa-1,2(2,1)-dipyrrolo[2,3-b]pyridina-4(4,1)-pyrazola-5(1,2)-benzenacyclononaphane-2^5-yl)methanone]
24 | 15 | COc1cc(C(=O)N2CC3CCC2[C@@H]3N)cc2nc3n(c12)Cc1cnn(c1)-c1ccccc1OCCCn1c-3cc2cccnc21 (stereo partly drawn) [Example 16, ((7R)-7-amino-2-azabicyclo[2.2.1]heptan-2-yl)((Z)-2^7-methoxy-1^1H,2^1H,4^1H-6-oxa-1,2(2,1)-dipyrrolo[2,3-b]pyridina-4(4,1)-pyrazola-5(1,2)-benzenacyclononaphane-2^5-yl)methanone]
25 | 11 | COc1cc(C(=O)N2CC3CCC2[C@@H]3N)cc2nc3n(c12)Cc1ccn(n1)-c1ccccc1OCCCn1c-3cc2cccnc21 (stereo partly drawn) [Example 17, ((7R)-7-amino-2-azabicyclo[2.2.1]heptan-2-yl)((E)-2^7-methoxy-1^1H,2^1H,4^1H-6-oxa-1,2(2,1)-dipyrrolo[2,3-b]pyridina-4(3,1)-pyrazola-5(1,2)-benzenacyclononaphane-2^5-yl) methanone]
26 | 9 | COc1cc(C(=O)N2C[C@H](N)C[C@@H](F)C2)cc2nc3n(c12)Cc1ccn(n1)-c1ccccc1OCCCn1c-3cc2cccnc21 [Example 18, ((3R,5R)-3-amino-5-fluoropiperidin-1-yl)((E)-2^7-methoxy-1^1H,2^1H,4^1H-6-oxa-1,2(2,1)-dipyrrolo[2,3-b]pyridina-4(3,1)-pyrazola-5(1,2)-benzenacyclononaphane-2^5-yl)methanone]

— patent publication US12492202B2, “Macrocyclic PAD4 inhibitors useful as immunosuppressant” (BRISTOL-MYERS SQUIBB COMPANY, priority 2020, dated 2025)
